≈ marks a conversion by molar mass, not a printed value. Read-outs that look alike come from different tables or passages of the source.

These results are taken from article PMC2949700, “Identification of the full set of Listeria monocytogenes penicillin-binding proteins and characterization of PBPD2 (Lmo2812)” (BMC Microbiology, 2010).

The subject of assay [1] is L. monocytogenes EGD. As to the kind of experiment: Microdilution MIC test. The assay is classed as cell-based, Listeria monocytogenes. How it is done: (§1) To determine the effect of these mutations on cell morphology, the strains EGD, KD2812 and DA07 were analyzed by scanning electron microscopy (SEM). […] At 30°C the average cell length compared to strain EGD was increased by 38.5% in strain KD2812 and by 44.8% in the double mutant strain. The respective values at 37°C were 37.5% and 43%. […] The variant cells were characteristically curved with a bend at either one or both ends and subterminal constrictions. The number of cells with altered morphology was increased as the growth temperature was raised (Figure 3; b, e, h). Cell bending was more pronounced in the population of AD07 mutant cells (Figure 3; c, f, i). […] Similar results were found for a mutant of L. monocytogenes lacking PBP5 (PBPD1) examined in a previous study.
(§2) Microdilution tests were performed using cation-adjusted Mueller-Hinton broth (CAMHB) supplemented with 5% lysed horse blood containing two-fold dilutions of the antimicrobial agents. These mixtures were dispensed in 100 μl aliquots into plastic 96-well plates. To prepare inocula, a single colony of each strain from a TSBYE plate was transferred into 10 ml of the same medium and incubated for 24 h at 37°C. These cultures were serially diluted in CAMHB to a concentration of 10^5 cfu/ml and 100 μl aliquots were added to the microdilution plates. The plates were incubated for 18-20 h at 37°C before the reading of the MIC endpoints. The MIC was the lowest antibiotic concentration at which visible growth was inhibited.

Assay [2] deals with L. monocytogenes KD2812 (Δlmo2812). As to the kind of experiment: Microdilution MIC test. The assay is classed as cell-based, Listeria monocytogenes. On the procedure:
as §1, §2
A general note: In broth dilution the organism is exposed to a series of concentrations in liquid medium.

The test system of assay [3] is L. monocytogenes AD07 (Δlmo2812 Δlmo2754). The assay can be described thus: Microdilution MIC test. It counts as cell-based, Listeria monocytogenes. On the procedure:
as §1, §2

Assay [4] addresses purified recombinant Lmo2812 (PBPD2) (Listeria monocytogenes, UniProt Q8Y3M3). The assay can be described thus: Fluorescent antibiotic binding assay, purified recombinant protein. The settings on record: purified recombinant Lmo2812; antibiotic concentration for 50% of maximum binding; read-out: apparent affinity constant (Kd50). On the procedure:
The purified protein was incubated with different concentrations of Boc-FL (0.25, 0.5, 2.5, 5 and 10 μM). […] Lmo2812 was the major band on gels, with a slower migrating minor band thought to represent a dimeric form (Figure 2).
Figure 2 Purified recombinant L. monocytogenes Lmo2812 (PBPD2) identified with Boc-FL. Samples of purified recombinant Lmo2812 (10 μg) were labeled with Boc-FL at concentrations of 0 (1), 0.25 (2), 0.5 (3), 2.5 (4), 5 (5) and 10 μM (6). Labeled bands were detected directly on the gel, quantified and their molecular mass estimated. The affinity of the bands for Boc-FL (Kd50) was estimated from their fluorescence as a function of the concentration of Boc-FL. The names of the bands are indicated on the right, and the positions of the molecular weight markers are shown on the left.
The β-lactam binding capacity of Lmo2812 was evaluated with three different fluorescent antibiotics: Boc-FL, Boc-650 and Amp-430.
Total whole cell proteins or purified recombinant protein resuspended in 50 mM NaPi buffer, pH 7.0 were labeled by incubation at 37°C for 30 min with different concentrations of Boc-FL (Molecular Probes), Boc-650 (Molecular Probes) or Amp-430 (prepared in the laboratory by coupling ampicillin to Alexa-430), and then separated on a 10% acrylamide, 3.3% cross-linkage SDS-PAGE gel. To avoid degradation of the fluorescent β-lactam antibiotics by β-lactamases, samples were incubated at 37°C with clavulanic acid at a final concentration of 10 μg/ml or EDTA at a final concentration of 10 mM for 30 min before labeling, where appropriate. Competition experiments were carried out by preincubation of the samples with ampicillin (100 μg/ml) for 30 min at 37°C, before adding the fluorescent antibiotic. The samples were then further incubated for 30 min at 37°C. PBPs were visualized directly on the polyacryloamide gel by fluorescence using a Typhoon 9410 imager (Amersham Biosciences) with excitation wavelengths of 588, 633 or 457 nm and emission filters 520BP40, 670BP30 or 555BP20 for Boc-FL, Boc-650 and Amp-430, respectively. […]

The subject of assay [5] is recombinant Lmo2812. As to the kind of experiment: Enzymatic activity assay with natural muropeptides. The assay is classed as biochemical, Listeria monocytogenes. The settings on record: for M4 (%) / M5 (%): 120 min at 37°C, HPLC. How it is done: No such cleavage occurred in the absence of Lmo2812.
The pH-dependence of the activity of Lmo2812 against monomeric muropepeptide M5 was determined in the pH range of 4.5 to 7.0. The highest activity was detected in assays performed at pH 7.0 in a Tris-Mg buffer, where half of the substrate was converted to the tetrapeptide (Table 3).
Whole total peptidoglycan and purified muropeptides were isolated from E. coli cells as described previously. A 10 μg sample of recombinant Lmo2812 was mixed with 5 μg of M5 (NAcGlc-NAcMur-pentapeptide) or D45 (NAcGlc-NAcMur-tetrapeptide-NAcGlc-NAcMur-pentapeptide) in a volume of 30 μl using three different buffer conditions: pH 4.5 (50 mM NaPi, 1% methanol, pH 4.5), pH 7.0 (30 mM Tris-HCl, 3 mM MgCl2, pH 7.0), or NaPi (50 mM sodium phosphate buffer, pH 7.0). These mixtures were incubated at 37°C for 120 min. Control samples of M5 or D45 without Lmo2812 were similarly incubated in 30 mM Tris-HCl buffer, 3 mM MgCl2, pH 7.0. The samples were analyzed by HPLC using a C18 reversed phase column and a methanol gradient to separate the peaks.

The test system of assay [6] is purified recombinant Lmo2812. As to the kind of experiment: DD-carboxypeptidase activity assay with synthetic tripeptide. The assay is classed as biochemical, Listeria monocytogenes. The settings on record: substrate up to 12.5 mM, 40 μg of purified protein. On the procedure:
The maximum activity was 0.75 pmoles/μg min, indicating low DD-carboxypeptidase activity under these assay conditions.
A modification of the method of Frere et al. was used for DD-carboxypeptidase activity measurement. A reaction mixture comprised of 15 μl of Nα,Nε-Diacetyl-Lys-D-Ala-D-Ala (25 mM), 3 μl of buffer (300 mM Tris-HCl pH 7.5) and 12 μl of purified recombinant Lmo2812 was prepared, incubated at 37°C and samples were taken every 10 min for 1 h. To these samples, 5 μl of 10 mg/ml (in methanol) o-Dianisidine (SIGMA) and 70 μl of enzyme/coenzyme mix (flavinadenine dinucleotide (FAD), Peroxidase and D-Amino acid Oxidase) were added. These mixtures were incubated at 37°C for 5 min, then 400 μl of methanol-water (v/v) was added and incubation continued at 37°C for another 2 min. The absorbance of each reaction was immediately read at 460 nm. A number of controls were performed: reactions containing only recombinant Lmo2812 fractions, reactions lacking recombinant Lmo2812 to establish the level of natural degradation of the tripeptide for at each sampling point, and standard samples containing known amounts of D-alanine.

The mark [7] stands for this setting: Listeria monocytogenes, EGD wild-type, CAMHB with 5% lysed horse blood, 18-20 h at 37°C, read-out: MIC.
Setting [8] is: KD2812 mutant, CAMHB with 5% lysed horse blood, 18-20 h at 37°C.
Where [9] appears, read: AD07 double mutant, CAMHB with 5% lysed horse blood, 18-20 h at 37°C.
Where [10] appears, read: EGD wild-type, CAMHB with 5% lysed horse blood, 18-20 h at 37°C.

Chain of purified recombinant Lmo2812 (PBPD2) (Q8Y3M3 entry or part of it): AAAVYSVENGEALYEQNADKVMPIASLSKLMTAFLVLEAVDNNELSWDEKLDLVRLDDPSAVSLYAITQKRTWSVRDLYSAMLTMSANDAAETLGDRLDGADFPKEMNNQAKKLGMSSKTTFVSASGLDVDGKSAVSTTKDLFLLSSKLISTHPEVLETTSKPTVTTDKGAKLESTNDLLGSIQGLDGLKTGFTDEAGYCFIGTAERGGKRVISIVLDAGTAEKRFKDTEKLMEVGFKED

What is called MIC is the lowest concentration found to suppress growth. Consider `CC(=O)OCC1=C(C(=O)O)N2C(=O)[C@@H](NC(=O)Cc3cccs3)[C@H]2SC1` [cefalotin], for which the MIC in assay [1] (setting [7]) was 2 µg/mL (≈ 5.04 µM).
For the molecule `CO/N=C(\C(=O)N[C@@H]1C(=O)N2C(C(=O)O)=C(COC(C)=O)CS[C@H]12)c1csc(N)n1` [cefotaxim], the MIC in assay [2] (setting [8]), in assay [3] (setting [9]) and in assay [1] (setting [10]) was 6 µg/mL (≈ 13.2 µM) throughout.
As to `CO[C@@]1(NC(=O)Cc2cccs2)C(=O)N2C(C(=O)O)=C(COC(N)=O)CS[C@@H]21` [cefoxitin], the minimum inhibitory concentration (MIC) in assay [2] (Listeria monocytogenes), in assay [3] (Listeria monocytogenes) and in assay [1] (Listeria monocytogenes) was 32 µg/mL (≈ 74.9 µM) throughout.
For `CC(C)(O/N=C(\C(=O)N[C@@H]1C(=O)N2C(C(=O)[O-])=C(C[n+]3ccccc3)CS[C@H]12)c1csc(N)n1)C(=O)O` [ceftazidime], the MIC in assay [2] (Listeria monocytogenes), in assay [3] (Listeria monocytogenes) and in assay [1] (Listeria monocytogenes) was 256 µg/mL (≈ 468 µM) throughout.
On to `Cc1onc(-c2ccccc2)c1C(=O)N[C@@H]1C(=O)N2[C@@H]1SC(C)(C)[C@@H]2C(=O)O` [oxacillin], for which the MIC turned out to be 1.25 µg/mL (≈ 3.11 µM) in assay [3] (Listeria monocytogenes) and 2.5 µg/mL (≈ 6.23 µM) in assay [1] (setting [7]).
For `CCN1CCN(C(=O)N[C@@H](C(=O)N[C@@H]2C(=O)N3[C@@H]2SC(C)(C)[C@@H]3C(=O)O)c2ccccc2)C(=O)C1=O` [piperacillin], the minimum inhibitory concentration (MIC) in assay [2] (Listeria monocytogenes), in assay [3] (Listeria monocytogenes) and in assay [1] (Listeria monocytogenes) was 1.25 µg/mL (≈ 2.42 µM) each time.
On to Ampicillin-Alexa430 [Amp-430], for which the Kd in assay [4] was found to be 18.5 µM.
Same read-out and setting: with Bocillin-650 [Boc-650] the figure was 2.8 µM.
On to NAcGlc-NAcMur-pentapeptide [M5], for which the “M4 (%)” value in assay [5] (Lmo2812, M5, NaPi, pH 7.0) is listed as 16%; in assay [5] (Lmo2812, M5, Tris-Mg, pH 7.0) it was 48%; in assay [5] (Lmo2812, M5, pH 4.5), 3%. For the same molecule, the “M5 (%)” value in assay [5] (Lmo2812, M5, NaPi, pH 7.0) turned out to be 84%; in assay [5] (Lmo2812, M5, Tris-Mg, pH 7.0), 52%; in assay [5] (Lmo2812, M5, pH 4.5) it was 97%.
Take “NAcGlc-NAcMur-tetrapeptide-NAcGlc-NAcMur-pentapeptide [D45]”: in assay [5] (up to 100 μg of protein, up to 18 h), the “hydrolysis by purified Lmo2812” value was “no such enzymatic activity was detected”.
Nα,Nε-Diacetyl-Lys-D-Ala-D-Ala: the “maximum DD-carboxypeptidase activity” value in assay [6] is 0.75 pmol/µg/min.
As for penicillin, the minimum inhibitory concentration (MIC) in assay [2] (setting [8]) is 0.16 µg/mL; in assay [3] (setting [9]), 0.08 µg/mL; in assay [1] (setting [10]), 0.16 µg/mL.
